Here are results for 1 molecule from patent US20220213060A1, “Crystal Form of Quinazolinone Compound and Preparation Method Therefor” (Luoxin Healthcare Science and Technology Development …, priority 2019, published 2022).

The target of one test is T1, PI3Kα (Homo sapiens, UniProt P42336).
T1 construct: purchased Millipore 14-602-K
Nature of the test: In vitro enzymatic activity test (ADP-Glo lipid kinase), PI3Kα wild type. It is filed as biochemical. The note with it: wild-type PI3Kα kinase; read-out: Wild type PI3Kα IC50. The method, then:
(§1) The lipid kinase reaction was carried out in a suitable substrate and under ATP conditions, then the activity of the kinase was detected by ADP-Glo™ kit in two steps. Step 1: the kinase reaction was terminated, in which the residual ATP was completely removed and only ADP was retained; step 2: kinase detection reagent was added to convert ADP to ATP, accompanied by fluorescein/luciferase reaction. Finally, the fluorescence value output was converted into kinase activity.
(§2) Experimental Materials and Equipment:
(§3) 2) Kit: ADP-Glo™ lipid kinase and PIP2:3PS kit (Promega #V1792)
(§4) The reagent kit contains: 1 mM PIP2:3PS, 10× lipid dilution buffer, 1 M magnesium chloride, 10 mM ATP, 10 mM ADP, ADP-Glo reagent, detection buffer and detection substrate.
(§5) 3) Reaction plate: OptiPlate-384, white and transparent (PerkinElmer #6007299)
(§6) 1) 10× reaction buffer: 500 mM HEPES, pH 7.5, 500 mM NaCl, […]; BSA: 10% stock solution, self-made
(§7) 2) Final test system conditions: 1× reaction system: 50 mM of HEPES, 50 mM of NaCl, 3 mM of MgCl2, 0.01% BSA (freshly prepared on the day of experiment), 1% DMSO (v/v)+/−compound
(§8) 3) Reaction system: 3 μL of mixture of enzyme and substrate (1:1)+2 μL of ATP/MgCl2 mixture+5 μL of ADP-Glo reagent+10 μL of detection reagent.
(§9) The specific experimental operations were as follows: […]
(§10) (16) Fluorescence values were measured on the Envision instrument.
Background: ADP-Glo first removes unused ATP, then detects ADP through luciferase.

The target in a further test is Mutant PI3Kα (H1047R) (Homo sapiens, UniProt P42336, H1047R). Nature of the test: In vitro enzymatic activity test, mutant PI3Kα (H1047R). It counts as biochemical.
Mutant PI3Kα (H1047R), sequence (P42336 whole entry H1047R): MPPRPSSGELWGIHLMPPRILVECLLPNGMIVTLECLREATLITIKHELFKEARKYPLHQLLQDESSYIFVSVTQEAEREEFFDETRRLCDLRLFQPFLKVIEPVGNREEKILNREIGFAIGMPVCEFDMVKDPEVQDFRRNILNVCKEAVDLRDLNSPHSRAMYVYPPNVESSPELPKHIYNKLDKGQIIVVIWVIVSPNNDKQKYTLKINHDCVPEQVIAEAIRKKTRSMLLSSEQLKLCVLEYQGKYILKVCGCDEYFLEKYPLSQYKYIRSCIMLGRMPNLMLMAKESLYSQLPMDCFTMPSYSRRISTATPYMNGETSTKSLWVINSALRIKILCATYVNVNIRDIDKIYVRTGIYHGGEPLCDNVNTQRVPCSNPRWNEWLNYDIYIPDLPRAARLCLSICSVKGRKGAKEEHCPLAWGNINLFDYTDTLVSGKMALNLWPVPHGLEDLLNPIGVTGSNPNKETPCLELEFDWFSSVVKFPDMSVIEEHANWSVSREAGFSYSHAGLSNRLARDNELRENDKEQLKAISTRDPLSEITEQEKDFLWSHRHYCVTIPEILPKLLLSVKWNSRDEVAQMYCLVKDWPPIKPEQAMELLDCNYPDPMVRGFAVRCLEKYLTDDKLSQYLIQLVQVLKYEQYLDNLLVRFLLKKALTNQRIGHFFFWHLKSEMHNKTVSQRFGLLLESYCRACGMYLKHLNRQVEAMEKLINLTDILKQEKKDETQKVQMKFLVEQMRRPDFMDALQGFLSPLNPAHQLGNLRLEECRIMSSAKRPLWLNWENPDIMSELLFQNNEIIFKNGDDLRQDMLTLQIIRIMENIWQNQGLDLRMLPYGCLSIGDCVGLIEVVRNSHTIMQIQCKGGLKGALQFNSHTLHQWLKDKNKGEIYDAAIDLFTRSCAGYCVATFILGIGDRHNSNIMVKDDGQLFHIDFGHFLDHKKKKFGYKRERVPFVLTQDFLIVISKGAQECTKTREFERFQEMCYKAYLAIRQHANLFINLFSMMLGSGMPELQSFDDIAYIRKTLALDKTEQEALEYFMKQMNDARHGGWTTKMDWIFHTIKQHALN
Mutant PI3Kα (H1047R), sequence (P27986 whole entry partner): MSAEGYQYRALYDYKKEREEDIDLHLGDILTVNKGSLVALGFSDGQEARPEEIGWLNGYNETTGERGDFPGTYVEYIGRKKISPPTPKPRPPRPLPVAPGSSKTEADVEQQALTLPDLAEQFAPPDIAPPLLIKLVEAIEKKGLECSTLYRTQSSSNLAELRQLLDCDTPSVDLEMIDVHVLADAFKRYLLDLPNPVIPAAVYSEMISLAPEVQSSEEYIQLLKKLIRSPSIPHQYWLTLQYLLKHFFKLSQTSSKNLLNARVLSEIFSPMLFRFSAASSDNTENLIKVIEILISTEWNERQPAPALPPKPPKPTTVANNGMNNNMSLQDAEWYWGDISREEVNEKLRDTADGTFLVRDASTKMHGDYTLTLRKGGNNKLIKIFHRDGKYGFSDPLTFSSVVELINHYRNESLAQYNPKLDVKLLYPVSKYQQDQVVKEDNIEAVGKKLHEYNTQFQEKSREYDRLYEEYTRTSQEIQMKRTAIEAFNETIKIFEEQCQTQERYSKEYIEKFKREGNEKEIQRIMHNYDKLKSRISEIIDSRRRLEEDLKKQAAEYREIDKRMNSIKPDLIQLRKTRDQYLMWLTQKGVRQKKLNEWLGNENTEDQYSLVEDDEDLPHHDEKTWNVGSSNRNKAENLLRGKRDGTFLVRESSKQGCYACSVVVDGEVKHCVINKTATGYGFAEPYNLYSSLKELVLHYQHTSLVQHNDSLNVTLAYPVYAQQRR
Excerpt: The crystal form A of the compound represented by formula (I) has a strong inhibitory effect on both wild-type and mutant PI3Kα kinases. […] The crystal form A of the compound represented by formula (I) has excellent selectivity to the other three subtypes of PI3K, and its inhibitory activity against PI3Kα is 149/7.44/6.61 times higher than that of PI3Kβ/δ/γ, respectively. The specific experimental method was the same as experimental embodiment 8. […] The specific experimental method was the same as experimental embodiment 9.
as §1, §2, §3
The reagent kit contains: 1 mM PIP2:3PS, 10× lipid dilution buffer, 1 M magnesium chloride, 10 mM ATP, 10 mM ADP, ADP-Glo reagent, detection buffer and detection substrate. […]
as §10

The target of a further test is T2, PI3Kδ (Homo sapiens, UniProt O00329).
T2 construct: purchased Millipore 14-604-K
T2 sequence (O00329 whole entry): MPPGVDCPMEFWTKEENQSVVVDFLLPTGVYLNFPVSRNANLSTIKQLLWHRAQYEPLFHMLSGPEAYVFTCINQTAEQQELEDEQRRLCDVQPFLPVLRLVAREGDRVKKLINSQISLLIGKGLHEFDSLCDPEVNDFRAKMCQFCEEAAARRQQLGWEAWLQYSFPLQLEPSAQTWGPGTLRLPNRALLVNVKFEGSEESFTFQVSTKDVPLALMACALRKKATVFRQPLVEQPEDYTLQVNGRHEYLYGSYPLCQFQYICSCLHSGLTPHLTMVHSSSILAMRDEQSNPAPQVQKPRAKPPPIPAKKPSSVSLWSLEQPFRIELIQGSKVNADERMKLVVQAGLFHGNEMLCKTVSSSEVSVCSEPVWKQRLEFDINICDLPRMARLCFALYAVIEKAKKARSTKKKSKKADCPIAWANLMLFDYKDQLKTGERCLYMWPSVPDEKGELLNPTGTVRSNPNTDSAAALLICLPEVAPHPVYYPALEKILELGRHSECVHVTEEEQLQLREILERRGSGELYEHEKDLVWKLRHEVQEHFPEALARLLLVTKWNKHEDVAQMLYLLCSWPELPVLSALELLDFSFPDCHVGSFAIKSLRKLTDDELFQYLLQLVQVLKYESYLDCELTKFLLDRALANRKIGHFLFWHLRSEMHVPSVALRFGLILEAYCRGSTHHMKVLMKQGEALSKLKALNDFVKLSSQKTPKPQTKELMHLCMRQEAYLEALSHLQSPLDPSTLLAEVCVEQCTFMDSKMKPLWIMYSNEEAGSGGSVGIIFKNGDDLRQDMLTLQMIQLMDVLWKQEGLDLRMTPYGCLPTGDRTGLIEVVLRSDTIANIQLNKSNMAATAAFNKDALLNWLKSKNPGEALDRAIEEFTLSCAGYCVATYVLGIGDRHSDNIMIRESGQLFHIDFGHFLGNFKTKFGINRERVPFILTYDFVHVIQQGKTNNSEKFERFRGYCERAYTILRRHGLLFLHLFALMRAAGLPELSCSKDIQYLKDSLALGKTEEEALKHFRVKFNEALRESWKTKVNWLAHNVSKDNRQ
T2 sequence (P27986 whole entry partner): as the sequence (P27986 whole entry partner) above
Nature of the test: In vitro enzymatic activity test (ADP-Glo lipid kinase), PI3Kδ. It counts as biochemical. The note with it: inhibitory activity against PI3Kα relative to PI3Kδ. As for the experimental part:
as §1, §2, §3, §4, §5, §6, §7, §8, §9, §10

In another test the target is T3, PI3Kγ (Homo sapiens, UniProt P48736).
T3 construct: purchased Millipore 14-558-K
T3 sequence (P48736 whole entry): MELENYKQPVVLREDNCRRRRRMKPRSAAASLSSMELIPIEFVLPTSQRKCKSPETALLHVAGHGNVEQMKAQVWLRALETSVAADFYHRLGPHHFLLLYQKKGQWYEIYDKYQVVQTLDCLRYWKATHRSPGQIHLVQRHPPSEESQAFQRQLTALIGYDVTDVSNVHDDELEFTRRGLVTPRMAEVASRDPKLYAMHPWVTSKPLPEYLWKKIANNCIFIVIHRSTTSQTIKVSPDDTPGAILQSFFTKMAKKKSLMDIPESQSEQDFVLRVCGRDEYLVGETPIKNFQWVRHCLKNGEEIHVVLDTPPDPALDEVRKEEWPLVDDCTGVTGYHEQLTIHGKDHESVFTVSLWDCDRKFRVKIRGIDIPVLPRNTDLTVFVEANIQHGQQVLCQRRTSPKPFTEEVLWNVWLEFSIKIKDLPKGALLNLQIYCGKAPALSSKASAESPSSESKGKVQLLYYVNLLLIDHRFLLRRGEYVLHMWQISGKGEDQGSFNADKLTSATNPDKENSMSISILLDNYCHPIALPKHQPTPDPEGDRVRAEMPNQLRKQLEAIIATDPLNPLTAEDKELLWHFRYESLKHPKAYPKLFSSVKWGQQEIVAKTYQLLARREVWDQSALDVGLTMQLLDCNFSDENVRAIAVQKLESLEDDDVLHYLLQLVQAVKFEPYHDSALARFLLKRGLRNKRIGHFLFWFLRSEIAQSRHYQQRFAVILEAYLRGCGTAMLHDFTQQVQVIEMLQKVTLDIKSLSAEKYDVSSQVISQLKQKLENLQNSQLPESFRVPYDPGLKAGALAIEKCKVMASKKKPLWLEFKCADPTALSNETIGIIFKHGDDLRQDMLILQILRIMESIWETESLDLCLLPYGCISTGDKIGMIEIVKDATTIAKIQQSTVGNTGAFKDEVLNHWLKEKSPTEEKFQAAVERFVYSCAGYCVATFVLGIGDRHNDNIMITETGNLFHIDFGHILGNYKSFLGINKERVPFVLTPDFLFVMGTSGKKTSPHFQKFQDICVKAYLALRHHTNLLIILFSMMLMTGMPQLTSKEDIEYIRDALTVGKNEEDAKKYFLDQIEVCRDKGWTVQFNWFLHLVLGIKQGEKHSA
Nature of the test: In vitro enzymatic activity test (ADP-Glo lipid kinase), PI3Kγ. It counts as biochemical. The note with it: inhibitory activity against PI3Kα relative to PI3Kγ. As for the experimental part:
as §1, §2, §3, §4, §5, §6, §7, §8, §9, §10

The next test has as its system p-AKT. Nature of the test: Western blot analysis of p-AKT protein expression level in BT474 tumor tissue samples. It counts as in vivo. Particulars: BT-474 nude mouse transplanted tumor model, 0.5 h, 4 h, 24 h after administration. The method, then:
7.1 Protein extraction and quantification
1) Quick-frozen tissue samples were taken out from the refrigerator at −80° C.
2) Operating on dry ice, cutting part of the tissues (about 30 mg), putting them into a 2 mL centrifuge tube with steel balls, and adding 500 μL of cell lysate RIPA (1% protease inhibitor and phosphatase inhibitor had been newly added).
3) Tissue was broken for 5 minutes using the highest frequency of Tissuelyser LT.
4) The tissue lysate was placed on ice for 30 minutes.
5) Centrifuging at 12,000 rpm at 4° C. for 10 minutes and removing the supernatant into a new 1.5 mL centrifuge tube.
6) The protein was quantified by BCA quantitative kit.
7) According to the quantitative results, the protein sample for loading was prepared, the protein concentration of the sample was unified to 2 μg/μL, LDS loading buffer (4×) and sample reducing agent (10×) were added, and the sample was heated at a constant temperature of 100° C. for 10 minutes.
8) Western blotting, or storing the denatured samples in a refrigerator at −80° C.
1) The sample for loading was thawed. […]
5) After the membrane transfer was finished, the membrane was cut according to the molecular weight of the protein to be detected, the membrane was washed with 1×TBST for 3 times and 5 minutes each time, and was shaken at room temperature. […]
13) Chemiluminescence was detected and photographed on the Tanon 5200 multi machine.
For orientation: In western blotting, separated proteins are transferred to a membrane and probed.

T1 sequence (P42336 whole entry): as the sequence (P42336 whole entry H1047R) above, with R1047H counted along it
T1 sequence (P27986 whole entry partner): as the sequence (P27986 whole entry partner) above

By IC50 is commonly meant the point on the concentration scale where inhibition reaches its midpoint. For `CNC(=O)[C@H](C)Cn1cnc2ccc(-c3cnc(OC)c(NS(=O)(=O)c4ccc(F)cc4F)c3)cc2c1=O`, the IC50 at PI3Kα was 1.8 nM; against Mutant PI3Kα (H1047R), 0.69 nM. Besides, the “Selectivity PI3Kα/δ (kinase)” value at PI3Kδ turned out to be 7.44 times. In addition, on PI3Kγ, the “Selectivity PI3Kα/γ (kinase)” value is listed as 6.61 times. Moreover, in the test with p-AKT, the “Akt phosphorylation level downstream of PI3K in tumor tissue (Western blot, FIG. 10)” value was “significantly inhibit”.
